In US9914730B2, “Azaquinazoline inhibitors of Atypical protein Kinase C” (Ignyta, Inc., priority 2012, dated 2018) one finds IC50 data, which are given here for 28 molecules.

Where only a bound is given, the exact number is not on record here.

Usually IC50 stands for the point on the concentration scale where inhibition reaches its midpoint.

The assay has as its target T1, full-length human PKCι (Homo sapiens, UniProt P41743).
T1 construct: Recombinant, full-length human PKCι expressed in Sf21 insect cells is also commercially available; purchased; host or cells: Sf21 insect cells
T1 sequence (P41743 1-596): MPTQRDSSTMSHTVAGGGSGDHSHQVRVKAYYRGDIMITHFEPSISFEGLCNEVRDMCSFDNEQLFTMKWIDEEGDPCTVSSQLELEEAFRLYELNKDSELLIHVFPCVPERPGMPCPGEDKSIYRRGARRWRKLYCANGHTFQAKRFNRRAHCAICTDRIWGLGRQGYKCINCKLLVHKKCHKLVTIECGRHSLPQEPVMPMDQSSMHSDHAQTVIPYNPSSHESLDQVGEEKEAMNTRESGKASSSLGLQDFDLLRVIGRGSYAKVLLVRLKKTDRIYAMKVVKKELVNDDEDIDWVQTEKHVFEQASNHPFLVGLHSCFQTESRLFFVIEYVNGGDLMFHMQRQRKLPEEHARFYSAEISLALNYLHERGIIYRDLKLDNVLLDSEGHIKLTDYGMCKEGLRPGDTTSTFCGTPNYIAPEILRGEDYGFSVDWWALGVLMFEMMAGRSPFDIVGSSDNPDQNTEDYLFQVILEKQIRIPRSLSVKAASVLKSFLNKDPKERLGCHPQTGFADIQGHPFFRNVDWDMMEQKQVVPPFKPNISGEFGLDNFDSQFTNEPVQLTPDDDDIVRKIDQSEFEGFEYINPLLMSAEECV
In words: PKCι IC50 IMAP assay, full-length PKCι at 150 μM ATP. As to conditions: read-out: IC50 in IMAP assay against full length PKCi at 150 μM ATP. It counts as biochemical. A digest of the protocol:
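IMAP fluorescence polarisation (ex 485/em 530 nm) read-out; % inhibition set from no-compound (0%) and no-enzyme (100%) controls, IC50 from dose-response curve fit. Sf21-expressed full-length enzyme ~15 pM, 100 nM FAM peptide, ATP 150 μM (5× KM^APP), 60 min at RT.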
Regarding `N#Cc1ccc(Nc2cc(-c3nc(N4CCNCC4)c4c(C5CC5)cncc4n3)ccn2)cc1F` [Example 631, 4-[4-(5-Cyclopropyl-4-piperazin-1-yl-pyrido[3,4-d]pyrimidin-2-yl)-pyridin-2-ylamino]-2-fluoro-benzonitrile], the IC50 fell in the range of 100 to 1000 nM. For `c1ccc(Nc2cc(-c3nc(N4CCCNCC4)c4c(C5CC5)cncc4n3)ccn2)cc1` [Example 632, [4-(5-Cyclopropyl-4-[1,4]diazepan-1-yl-pyrido[3,4-d]pyrimidin-2-yl)-pyridin-2-yl]-phenyl-amine] the value was less than 100 nM; for `OC1CCC(Nc2cc(-c3nc(N4CCNCC4)c4c(C5CC5)cncc4n3)ccn2)CC1` (stereo not shown) [Example 633, 4-[4-(5-Cyclopropyl-4-piperazin-1-yl-pyrido[3,4-d]pyrimidin-2-yl)-pyridin-2-ylamino]-cyclohexanol], less than 100 nM. Then `COc1ccc(F)c(Nc2cc(-c3nc(N4CCNCC4)c4c(C5CC5)cncc4n3)ccn2)c1Cl` [Example 634, (2-Chloro-6-fluoro-3-methoxy-phenyl)-[4-(5-cyclopropyl-4-piperazin-1-yl-pyrido[3,4-d]pyrimidin-2-yl)-pyridin-2-yl]-amine], with less than 100 nM. Take `Fc1ccc(F)c(Nc2cc(-c3nc(N4CCNCC4)c4c(C5CC5)cncc4n3)ccn2)c1Cl` [Example 635, (2-Chloro-3,6-difluoro-phenyl)-[4-(5-cyclopropyl-4-piperazin-1-yl-pyrido[3,4-d]pyrimidin-2-yl)-pyridin-2-yl]-amine]: the IC50 was less than 100 nM. For `[2H]C1([2H])NC([2H])([2H])C([2H])([2H])N(c2nc(-c3ccnc(Nc4ccccc4)c3)nc3cncc(C4CC4)c23)C1([2H])[2H]` [Example 636, {4-[5-Cyclopropyl-4-(2,2,3,3,5,5,6,6-octadeuterio-piperazin-1-yl)-pyrido[3,4-d]pyrimidin-2-yl]-pyridin-2-yl}-phenyl-amine] the value was less than 100 nM; for `COc1cc(Nc2cc(-c3nc(N4CCNCC4)c4c(C5CC5)cncc4n3)ccn2)ccc1C1CC1` [Example 637, (4-Cyclopropyl-3-methoxy-phenyl)-[4-(5-cyclopropyl-4-piperazin-1-yl-pyrido[3,4-d]pyrimidin-2-yl)-pyridin-2-yl]-amine], less than 100 nM; for `NC(=O)N1CCN(c2nc(-c3ccnc(Nc4ccccc4)c3)nc3cncc(C4CC4)c23)CC1` [Example 638, 4-[5-Cyclopropyl-2-(2-phenylamino-pyridin-4-yl)-pyrido[3,4-d]pyrimidin-4-yl]-piperazine-1-carboxylic acidamide], 100 to 1000 nM. Turning to `O=C(Cc1c(F)cccc1F)Nc1cc(-c2nc(N3CCNCC3)c3c(C4CC4)cncc3n2)ccn1` [Example 639, N-[4-(5-Cyclopropyl-4-piperazin-1-yl-pyrido[3,4-d]pyrimidin-2-yl)-pyridin-2-yl]-2-(2,6-difluoro-phenyl)-acetamide], the 50% inhibitory concentration (IC50) is less than 100 nM. Turning to `CCCc1ccc(F)c(Nc2cc(-c3nc(N4CCNCC4)c4c(C5CC5)cncc4n3)ccn2)c1` [Example 640, [4-(5-Cyclopropyl-4-piperazin-1-yl-pyrido[3,4-d]pyrimidin-2-yl)-pyridin-2-yl]-(2-fluoro-5-propyl-phenyl)-amine], the IC50 was less than 100 nM. As to `Fc1cc(C2CC2)ccc1Nc1cc(-c2nc(N3CCNCC3)c3c(C4CC4)cncc3n2)ccn1` [Example 641, (4-Cyclopropyl-2-fluoro-phenyl)-[4-(5-cyclopropyl-4-piperazin-1-yl-pyrido[3,4-d]pyrimidin-2-yl)-pyridin-2-yl]-amine], the IC50 was less than 100 nM. `Fc1cccc(F)c1Nc1cc(-c2nc(N3CCNC(CC(F)(F)F)C3)c3c(C4CC4)cncc3n2)ccn1` (stereo not shown) [Example 642, (4-{5-Cyclopropyl-4-[3-(2,2,2-trifluoro-ethyl)-piperazin-1-yl]-pyrido[3,4-d]pyrimidin-2-yl}-pyridin-2-yl)-(2,6-difluoro-phenyl)-amine]: the IC50 was 100 to 1000 nM.

Consider `FC(F)(F)CC1CN(c2nc(-c3ccnc(Nc4ccccc4)c3)nc3cncc(C4CC4)c23)CCN1` (stereo not shown) [Example 643, [4-{5-Cyclopropyl-4-[3-(2,2,2-trifluoro-ethyl)-piperazin-1-yl]-pyrido[3,4-d]pyrimidin-2-yl}-pyridin-2-yl)-phenyl-amine], for which the IC50 lay within 1000 to 10000 nM. Turning to `C[C@@H](Nc1cc(-c2nc(N3CCNCC3)c3c(C4CC4)cncc3n2)ccn1)c1cccc(F)c1` [Example 644, [4-(5-Cyclopropyl-4-piperazin-1-yl-pyrido[3,4-d]pyrimidin-2-yl)-pyridin-2-yl]-[(R)-1-(3-fluoro-phenyl)-ethyl]-amine], the IC50 was less than 100 nM.

Turning to `N#Cc1ccc(Nc2cc(-c3nc(N4CCNCC4)c4c(C5CC5)cncc4n3)ccn2)cc1` [Example 645, 4-[4-(5 Cyclopropyl-4-piperazin-1-yl-pyrido[3,4-d]pyrimidin-2-yl)-pyridin-2-ylamino]-benzonitrile], the half-inhibitory concentration (IC50) is less than 100 nM. `FC(F)(F)c1cccc(Nc2cc(-c3nc(N4CCNCC4)c4c(C5CC5)cncc4n3)ccn2)c1` [Example 646, [4-(5-Cyclopropyl-4-piperazin-1-yl-pyrido[3,4-d]pyrimidin-2-yl)-pyridin-2-yl]-(3-trifluoromethyl-phenyl)-amine]: the IC50 was less than 100 nM. For `Fc1cc(F)c(Nc2cc(-c3nc(N4CCNCC4)c4c(C5CC5)cncc4n3)ccn2)c(F)c1` [Example 650, [4-(5-Cyclopropyl-4-piperazin-1-yl-pyrido[3,4-d]pyrimidin-2-yl)-pyridin-2-yl]-(2,4,6-trifluoro-phenyl)-amine], the IC50 was less than 100 nM. `Fc1ccc(Nc2cc(-c3nc(N4CCNCC4)c4c(C5CC5)cncc4n3)ccn2)c(F)c1` [Example 651, [4-(5-Cyclopropyl-4-piperazin-1-yl-pyrido[3,4-d]pyrimidin-2-yl)-pyridin-2-yl]-(2,4-difluoro-phenyl)-amine]: the IC50 was less than 100 nM.

Turning to `C[C@@H](Nc1cc(-c2nc(N3CCNCC3)c3c(C4CC4)cncc3n2)ccn1)c1ccc(F)cc1` [Example 652], the IC50 is less than 100 nM. In the case of `C[C@@H](Nc1cc(-c2nc(N3CCNCC3)c3c(C4CC4)cncc3n2)ccn1)c1c(F)cccc1F` [Example 653, [4-(5-Cyclopropyl-4-piperazin-1-yl-pyrido[3,4-d]pyrimidin-2-yl)-pyridin-2-yl]-[(R)-1-(2,6-difluoro-phenyl)-ethyl]-amine], the half-maximal inhibitory concentration (IC50) is less than 100 nM.

Consider `Fc1cnc(Nc2ccccc2)cc1-c1nc(N2CCNCC2)c2c(C3CC3)cncc2n1` [Example 654, [4-(5-Cyclopropyl-4-piperazin-1-yl-pyrido[3,4-d]pyrimidin-2-yl)-5-fluoro-pyridin-2-yl]-phenyl-amine], for which the IC50 was less than 100 nM. Take `CC(C)NC(=O)C1CCN(c2nc(-c3ccnc(Nc4c(F)cccc4F)c3)nc3cncc(C4CC4)c23)CC1` [Example 655, 1-{5-Cyclopropyl-2-[2-(2,6-difluoro-phenylamino)-pyridin-4-yl]-pyrido[3,4-d]pyrimidin-4-yl}-piperidine-4-carboxylic acid isopropylamide]: the IC50 was 1000 to 10000 nM.

Regarding `NC(=O)C1CCN(c2nc(-c3ccnc(Nc4c(F)cccc4F)c3)nc3cncc(C4CC4)c23)CC1` [Example 656, 1-{5-Cyclopropyl-2-[2-(2,6-difluoro-phenylamino)-pyridin-4-yl]-pyrido[3,4-d]pyrimidin-4-yl}-piperidine-4-carboxylic acid amide], the IC50 was in the range of 100 to 1000 nM. As to `CC(=O)NC1CCN(c2nc(-c3ccnc(Nc4c(F)cccc4F)c3)nc3cncc(C4CC4)c23)CC1` [Example 657, N-(1-{5-Cyclopropyl-2-[2-(2,6-difluoro-phenylamino)-pyridin-4-yl]-pyrido[3,4-d]pyrimidin-4-yl}-piperidin-4-yl)-acetamide], the half-maximal inhibitory concentration (IC50) is 100 to 1000 nM.

Regarding `O=C(NCCF)C1CCN(c2nc(-c3ccnc(Nc4c(F)cccc4F)c3)nc3cncc(C4CC4)c23)CC1` [Example 658, 1-{5-Cyclopropyl-2-[2-(2,6-difluoro-phenylamino)-pyridin-4-yl]-pyrido[3,4-d]pyrimidin-4-yl}-piperidine-4-carboxylic acid (2-fluoro-ethyl)-amide], the IC50 is 1000 to 10000 nM. `CC(=O)Nc1cc(-c2nc(N3CCN[C@H](C(F)(F)F)C3)c3c(C4CC4)cncc3n2)ccn1` [Example 659, N-{4-[5-Cyclopropyl-4-((S)-3-trifluoromethyl-piperazin-1-yl)-pyrido[3,4-d]pyrimidin-2-yl]-pyridin-2-yl}-acetamide]: the IC50 fell in the range of 100 to 1000 nM. `FC(F)(F)[C@H]1CN(c2nc(-c3ccnc(Cl)c3)nc3cncc(C4CC4)c23)CCN1` [Example 660, 2-(2-Chloro-pyridin-4-yl)-5-cyclopropyl-4-((R)-3-trifluoromethyl-piperazin-1-yl)-pyrido[3,4-d]pyrimidine]: the IC50 lay in the range of 10000 to 40000 nM. As for `COCCN1CCN(c2nc(-c3ccnc(Nc4ccccc4)c3)nc3cncc(C4CC4)c23)CC1` [Example 661, (4-{5-Cyclopropyl-4-[4-(2-methoxy-ethyl)-piperazin-1-yl]-pyrido[3,4-d]pyrimidin-2-yl}-pyridin-2-yl)-phenyl-amine], the IC50 lay in the range of 1000 to 10000 nM.
